According to paper PMC7008598 (Science signaling, 2019):

What was measured:
[1] = tested on: TNFR1-stimulated NF-κB activation; experiment: LTα-induced NF-κB activation luciferase assay in HEK293 cells; assay type: cell-based, human
[2] = tested on: TNFR1-stimulated NF-κB activation; conditions: read-out: absolute IC50, inhibition of ligand-induced NF-κB activation; cited from earlier work
human TNFR1 ECD = target: T1, human TNFR1 ECD (Homo sapiens, UniProt P19438); experiment: SPR binding assay on immobilized TNFR1 ECD
T1 sequence (P19438 30-211 limits assumed): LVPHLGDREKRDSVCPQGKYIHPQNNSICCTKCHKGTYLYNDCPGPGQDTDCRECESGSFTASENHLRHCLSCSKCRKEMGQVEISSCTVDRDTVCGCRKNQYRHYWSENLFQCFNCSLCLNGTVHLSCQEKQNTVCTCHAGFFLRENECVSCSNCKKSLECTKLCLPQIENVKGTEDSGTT

[3] = tested on: basal NF-κB activation in TNFR1 KO HAP1 cells; experiment: Basal NF-κB activation in TNFR1 KO HAP1 cells; assay type: cell-based, human
TNFR1 ECD dimer = target: T2, TNFR1 ECD dimer (Homo sapiens, UniProt P19438); experiment: Native gel characterization of soluble TNFR1 ECD dimer; assay type: biochemical; conditions: compounds 200 μM
T2 sequence (P19438 30-211 limits assumed): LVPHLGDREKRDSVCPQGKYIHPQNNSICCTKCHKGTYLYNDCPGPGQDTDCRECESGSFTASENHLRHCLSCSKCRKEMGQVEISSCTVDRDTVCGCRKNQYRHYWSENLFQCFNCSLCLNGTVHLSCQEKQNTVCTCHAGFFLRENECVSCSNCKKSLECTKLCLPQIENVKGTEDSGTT

TNFR1 PLAD dimer = target: T3, TNFR1 PLAD dimer (Homo sapiens, UniProt P19438); experiment: Native gel characterization of soluble TNFR1 PLAD dimer; conditions: compounds 200 μM
T3 sequence (P19438 30-82): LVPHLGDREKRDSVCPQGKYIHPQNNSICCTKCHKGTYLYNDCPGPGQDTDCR

[4] = tested on: TRADD-induced NF-κB activation; experiment: TRADD-induced NF-κB activation in HEK293 cells; assay type: cell-based, human; conditions: HEK293, TRADD overexpression, 0.1 to 200 μM
[5] = target: T4, recombinant human TNFR1 extracellular domain (human, UniProt P19438 30-211); experiment: SPR
T4 sequence (looked up): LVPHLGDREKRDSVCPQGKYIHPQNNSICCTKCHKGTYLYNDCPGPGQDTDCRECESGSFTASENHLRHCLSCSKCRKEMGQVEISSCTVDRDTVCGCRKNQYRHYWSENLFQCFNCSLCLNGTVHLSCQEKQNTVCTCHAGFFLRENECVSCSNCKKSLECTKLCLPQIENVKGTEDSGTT

[6] = target: T5, soluble FLAG-tagged lymphotoxin-α (LTα), P01374; experiment: native gel or EMSA; conditions: remark: other sources report otherwise
T5 chain: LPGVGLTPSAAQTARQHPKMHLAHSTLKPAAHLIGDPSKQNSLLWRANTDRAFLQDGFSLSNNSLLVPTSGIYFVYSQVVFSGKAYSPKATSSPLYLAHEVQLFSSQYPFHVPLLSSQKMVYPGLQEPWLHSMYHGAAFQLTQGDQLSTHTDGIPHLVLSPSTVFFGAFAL

native gel or EMSA = target: the molecule itself; experiment: native gel or EMSA

COc1cc(C(=O)NS(=O)(=O)c2ccccc2C)ccc1Cc1cn(C)c2ccc(NC(=O)OC3CCCC3)cc12 [zafirlukast]
extent of inhibition of NF-κB activation ([1]; HEK293, LTα, maximal inhibition): 55% | IC50 for inhibition of NF-κB in the presence of H398 ([1]; presence of H398 antibody): unchanged | IC50 [2]: 50 µM | Kd (human TNFR1 ECD): 86 µM | noncompetitive binding of LTα and compound to TNFR1 ECD (human TNFR1 ECD; SPR, LTα 50 nM, compound 200 μM): equal to the sum of the individual response | LTα binding affinity to TNFR1 ECD in the presence of compound (human TNFR1 ECD; SPR, compound at saturating 200 μM): essentially unchanged | competition with H398 for binding TNFR1 (human TNFR1 ECD; SPR, compounds 200 μM, H398 at 1.0 nM): did not compete with H398 | effect on basal level of NF-κB activation in TNFR1 KO cells (specificity) [3]: almost no effect on basal activity | disruption of TNFR1 ECD dimer (TNFR1 ECD dimer): disrupted | disruption of soluble PLAD dimers (TNFR1 PLAD dimer): disrupted | effect on TRADD-induced NF-κB activation [4]: little effect

B1: soluble FLAG-tagged lymphotoxin-α (LTα) (ligand, UniProt P01374 35-205, looked up)
chain: LPGVGLTPSAAQTARQHPKMHLAHSTLKPAAHLIGDPSKQNSLLWRANTDRAFLQDGFSLSNNSLLVPTSGIYFVYSQVVFSGKAYSPKATSSPLYLAHEVQLFSSQYPFHVPLLSSQKMVYPGLQEPWLHSMYHGAAFQLTQGDQLSTHTDGIPHLVLSPSTVFFGAFAL
Kd [5]: 0.037 µM | stoichiometry N [6]: 3

B2: FLAG-tagged TNFR1 PLAD (residues 30 to 82) (domain or fragment, UniProt P19438 30-82, looked up)
chain: LVPHLGDREKRDSVCPQGKYIHPQNNSICCTKCHKGTYLYNDCPGPGQDTDCR
stoichiometry N (native gel or EMSA): 2
